ChEMBL document CHEMBL1201862, “PubChem BioAssay data set” (2004)
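Assay format: 96-well plates, 48-hour exposure. GI50 is the concentration that inhibits growth by half.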 The source made the active and inactive calls. Cut-off read from the data, not from the text of the source: active = GI50 up to about 1.1 µM and inactive = higher. *1 amine or outer side, *2 acyl side, *3 side chain or, on linkers, in order; H or OH if unused. Where a SMILES comes first, the peptide text is derived from it. [ ]: non-standard residue; d: D form. The star is where a group is joined. ξ: configuration not given here. X53 = CC(C)C[C@H](N[*:1])C1=N[C@H](C(=O)[*:2])CS1; Ile(3ξ) = CCC(C)[C@H](N)C(=O)O; Allyl(1,1-Me2) = C=CC(C)(C)*

Tests used:
Test in all cases: NCI anticancer screen, dose series, 48 h
SNB-19 = test system: SNB-19
OVCAR-8 = test system: OVCAR-8
NCI-H23 = test system: NCI-H23
UO-31 = test system: UO-31
TK-10 = test system: TK-10
A498 = test system: A498
SF-295 = test system: SF-295
HCT-116 = test system: HCT-116
UACC-62 = test system: UACC-62
HT-29 = test system: HT-29
CCRF-CEM = test system: CCRF-CEM
Hs-578T = test system: Hs-578T
SN12C = test system: SN12C
MDA-MB-435 = test system: MDA-MB-435
RXF 393 = test system: RXF 393
NCI-H522 = test system: NCI-H522
SK-OV-3 = test system: SK-OV-3
ACHN = test system: ACHN
MCF7 = test system: MCF7
RPMI-8226 = test system: RPMI-8226

| SMILES | GI50 (SNB-19) | GI50 (OVCAR-8) | GI50 (NCI-H23) | GI50 (UO-31) | GI50 (TK-10) | GI50 (A498) | GI50 (SF-295) | GI50 (HCT-116) | GI50 (UACC-62) | GI50 (HT-29) | GI50 (CCRF-CEM) | GI50 (Hs-578T) | GI50 (SN12C) | GI50 (MDA-MB-435) | GI50 (RXF 393) | GI50 (NCI-H522) | GI50 (SK-OV-3) | GI50 (ACHN) | GI50 (MCF7) | GI50 (RPMI-8226) |
| --- | --- | --- | --- | --- | --- | --- | --- | --- | --- | --- | --- | --- | --- | --- | --- | --- | --- | --- | --- | --- |
| COc1cccc(CCNC(=O)Cc2ccccc2CCO)c1 | > 100 µM (inactive) | > 100 µM (inactive) | > 100 µM (inactive) | > 100 µM (inactive) | > 100 µM (inactive) | > 100 µM (inactive) | > 100 µM (inactive) | > 100 µM (inactive) | > 100 µM (inactive) | > 100 µM (inactive) | > 100 µM (inactive) | > 100 µM (inactive) | > 100 µM (inactive) | > 100 µM (inactive) | > 100 µM (inactive) | > 100 µM (inactive) | > 100 µM (inactive) | > 100 µM (inactive) | > 100 µM (inactive) | > 10 µM (inactive) |
| COC1C=COC2(C)Oc3c(C)c(O)c4c(O)c(c(C5SCCS5)c(O)c4c3C2=O)NC(=O)/C(C)=C\C=CC(C)C(O)C(C)C(O)C(C)C(OC(C)=O)C1C (stereo not given) | 4.88 µM (inactive) | 7.87 µM (inactive) | 4.69 µM (inactive) | 12.1 µM (inactive) | 3.21 µM (inactive) | 13.1 µM (inactive) | 4.74 µM (inactive) | 5.02 µM (inactive) | 6.18 µM (inactive) | 3.49 µM (inactive) | 2.26 µM (inactive) | 13.4 µM (inactive) | 2.55 µM (inactive) | 4.26 µM (inactive) | 6.05 µM (inactive) | 4.75 µM (inactive) | 14.1 µM (inactive) | 3.01 µM (inactive) | 4.24 µM (inactive) | 2.71 µM (inactive) |
| CN(C)C1C(O)=C(C(=O)NCN2CCCC2)C(=O)C2(O)C(O)=C3C(=O)c4c(O)cccc4C(C)(O)C3CC12 (stereo not given) | > 100 µM (inactive) | > 100 µM (inactive) | 63.5 µM (inactive) | > 100 µM (inactive) | 60.7 µM (inactive) | > 100 µM (inactive) | > 100 µM (inactive) | > 100 µM (inactive) | > 100 µM (inactive) | > 100 µM (inactive) | 59 µM (inactive) | > 100 µM (inactive) | > 100 µM (inactive) | 34.5 µM (inactive) | > 100 µM (inactive) | > 100 µM (inactive) | > 100 µM (inactive) | > 100 µM (inactive) | 54.6 µM (inactive) | > 100 µM (inactive) |
| CCCCCCC(=O)OC[n+]1cccc(-c2c(COC(=O)NC(C)C)c(COC(=O)NC(C)C)c3n2CCC3)c1 | 90.6 µM (inactive) | 34.4 µM (inactive) | 26.9 µM (inactive) | 26.2 µM (inactive) | 56.2 µM (inactive) | 23 µM (inactive) | > 62.2 µM (inactive) | 32.8 µM (inactive) | 20 µM (inactive) | 40.6 µM (inactive) | 9.55 µM (inactive) | > 57.4 µM (inactive) | 31 µM (inactive) | 70.8 µM (inactive) | 20.4 µM (inactive) | 22.6 µM (inactive) | 40.6 µM (inactive) | 21.4 µM (inactive) | 27.6 µM (inactive) | 32.1 µM (inactive) |
| CCN(CCCl)c1cc(CN(C)C)cc(NC(=O)c2cc(C(=O)Nc3cc(CN(C)C)cc(N(CC)CCCl)c3)n(C)n2)c1 | 0.0658 µM (active) | 0.143 µM (active) | 0.284 µM (active) | 3.06 µM (inactive) | 2.69 µM (inactive) | 2 µM (inactive) | 0.78 µM (active) | 0.227 µM (active) | 0.219 µM (active) | 0.136 µM (active) | < 0.01 µM (active) | 0.197 µM (active) | 0.3 µM (active) | 0.213 µM (active) | 0.449 µM (active) | 0.115 µM (active) | 0.331 µM (active) | 0.0828 µM (active) | < 0.01 µM (active) | 0.24 µM (active) |
| CCCC(=O)Nc1cc(/C=C/C(=O)N2C[C@@H]3C[C@]34C2=CC(=O)c2[nH]cc(C)c24)n(C)c1 | 0.745 µM (active) | 0.0533 µM (active) | 0.0927 µM (active) | 0.473 µM (active) | 0.495 µM (active) | 0.236 µM (active) | 0.453 µM (active) | 0.0841 µM (active) | 0.0682 µM (active) | 0.208 µM (active) | 0.0321 µM (active) | 0.668 µM (active) | 0.47 µM (active) | 0.285 µM (active) | 0.0711 µM (active) | 0.0432 µM (active) | 0.975 µM (active) | 0.0689 µM (active) | 0.0596 µM (active) | 0.675 µM (active) |
| Cc1cccc(NC(=O)CC(=O)N2N=C(N3c4ccccc4Sc4ccccc43)CC2c2ccccc2)c1 (stereo not given) | > 100 µM (inactive) | > 100 µM (inactive) | > 100 µM (inactive) | > 100 µM (inactive) | > 100 µM (inactive) | > 100 µM (inactive) | > 100 µM (inactive) | > 100 µM (inactive) | > 100 µM (inactive) | > 100 µM (inactive) | > 100 µM (inactive) | > 100 µM (inactive) | > 100 µM (inactive) | > 100 µM (inactive) | > 100 µM (inactive) | > 100 µM (inactive) | > 100 µM (inactive) | > 100 µM (inactive) | > 100 µM (inactive) | > 100 µM (inactive) |
| Nc1nc2cc3nc(N)c(N)nc3cc2nc1N | > 100 µM (inactive) | > 100 µM (inactive) | > 100 µM (inactive) | > 100 µM (inactive) | 80.5 µM (inactive) | > 100 µM (inactive) | > 100 µM (inactive) | 84.3 µM (inactive) | > 100 µM (inactive) | > 100 µM (inactive) | 64.3 µM (inactive) | > 100 µM (inactive) | > 100 µM (inactive) | > 100 µM (inactive) | > 100 µM (inactive) | > 100 µM (inactive) | > 100 µM (inactive) | > 100 µM (inactive) | > 100 µM (inactive) | > 100 µM (inactive) |
| C=CC(C)(C)OC[C@@H]1NC(=O)CNC(=O)[C@@H]2CCCN2C(=O)[C@H](C(C)CC)NC(=O)[C@@H]2CSC(=N2)[C@H](CC(C)C)NC1=O (stereo not given in full) (cyclo(GS(Allyl(1,1-Me2))[X53][Ile(3ξ)]P)) | > 100 µM (inactive) | 69.3 µM (inactive) | 43.9 µM (inactive) | 41.6 µM (inactive) | > 100 µM (inactive) | > 100 µM (inactive) | 45.2 µM (inactive) | 56.5 µM (inactive) | 72.3 µM (inactive) | 84.7 µM (inactive) | 30.9 µM (inactive) | 23.2 µM (inactive) | > 100 µM (inactive) | 26.4 µM (inactive) | > 100 µM (inactive) | 32.9 µM (inactive) | > 100 µM (inactive) | 76.6 µM (inactive) | 40.6 µM (inactive) | 18.6 µM (inactive) |
| CC(C)N1CCN(c2ccc(OCC3COC(Cn4cncn4)(c4ccc(Cl)cc4Cl)O3)cc2)CC1 (stereo not given) [TERCONAZOLE] | > 42.1 µM (inactive) | 17.3 µM (inactive) | 14.2 µM (inactive) | > 21.9 µM (inactive) | 9.62 µM (inactive) | 14 µM (inactive) | 12.8 µM (inactive) | 11.2 µM (inactive) | 2.34 µM (inactive) | 3.62 µM (inactive) | 11.5 µM (inactive) | 12.2 µM (inactive) | 15.8 µM (inactive) | 4.97 µM (inactive) | 11.6 µM (inactive) | 15.2 µM (inactive) | 13.5 µM (inactive) | 20.6 µM (inactive) | 13.2 µM (inactive) | 10.5 µM (inactive) |
